According to PubChem BioAssay AID504400 (The Scripps Research Institute Molecular Screening Center, 2011):
The source made the active and inactive calls. No rule for the calls is given here.

Tests used:
Assay in all cases: CYP450 and receptor off-target profile – biochemical, Ricerca HitProfilingScreen, selectivity assay for S1P4 agonist project, late-stage follow-up (AID 504400)
CYP450, 2C19 = settings: Ricerca radioligand binding/enzyme panel plus CYP450, at 10 µM, stronger effect = higher value
Adenosine A1 = settings: Ricerca radioligand binding/enzyme panel plus CYP450, at 10 µM, stronger effect = higher value
[1] = target: Muscarinic acetylcholine receptor M2 (Homo sapiens) (UniProt P08172); settings: Ricerca radioligand binding/enzyme panel plus CYP450, at 10 µM, stronger effect = higher value
Muscarinic acetylcholine receptor M2 (Homo sapiens), sequence (P08172 whole entry, looked up): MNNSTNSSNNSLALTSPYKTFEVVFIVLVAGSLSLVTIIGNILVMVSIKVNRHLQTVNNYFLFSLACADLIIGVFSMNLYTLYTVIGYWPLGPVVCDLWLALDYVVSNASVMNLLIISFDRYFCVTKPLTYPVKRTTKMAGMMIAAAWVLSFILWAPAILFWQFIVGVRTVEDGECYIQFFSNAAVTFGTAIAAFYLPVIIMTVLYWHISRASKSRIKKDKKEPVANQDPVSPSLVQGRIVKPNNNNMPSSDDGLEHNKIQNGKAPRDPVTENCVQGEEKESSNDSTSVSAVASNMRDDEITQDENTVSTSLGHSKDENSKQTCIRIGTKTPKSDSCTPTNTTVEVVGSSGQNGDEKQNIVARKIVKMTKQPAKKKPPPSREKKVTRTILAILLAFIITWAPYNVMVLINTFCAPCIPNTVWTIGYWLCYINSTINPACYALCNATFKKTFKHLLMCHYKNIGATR

[2] = target: Cytochrome P450 2C9 (Homo sapiens) (UniProt P11712); settings: Ricerca radioligand binding/enzyme panel plus CYP450; CYP450, 2C9; at 10 µM; stronger effect = higher value
Cytochrome P450 2C9 (Homo sapiens), sequence (P11712 whole entry, looked up): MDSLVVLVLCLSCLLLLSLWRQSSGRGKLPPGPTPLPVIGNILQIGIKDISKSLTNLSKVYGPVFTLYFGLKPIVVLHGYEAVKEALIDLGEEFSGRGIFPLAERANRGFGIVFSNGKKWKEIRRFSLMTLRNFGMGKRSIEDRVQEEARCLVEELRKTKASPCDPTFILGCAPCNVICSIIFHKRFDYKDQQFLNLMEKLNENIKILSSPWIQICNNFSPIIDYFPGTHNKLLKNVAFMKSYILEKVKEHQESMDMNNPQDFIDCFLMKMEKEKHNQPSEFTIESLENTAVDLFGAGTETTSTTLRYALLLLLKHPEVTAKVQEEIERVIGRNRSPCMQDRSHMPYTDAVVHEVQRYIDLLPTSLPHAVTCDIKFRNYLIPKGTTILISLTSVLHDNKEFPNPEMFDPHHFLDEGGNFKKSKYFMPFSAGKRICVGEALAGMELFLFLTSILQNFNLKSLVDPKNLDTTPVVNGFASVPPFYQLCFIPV

[3] = target: Cytochrome P450 1A2 (Homo sapiens) (UniProt P05177); settings: Ricerca radioligand binding/enzyme panel plus CYP450; CYP450, 1A2; at 10 µM; stronger effect = higher value
Cytochrome P450 1A2 (Homo sapiens), sequence (P05177 whole entry, looked up): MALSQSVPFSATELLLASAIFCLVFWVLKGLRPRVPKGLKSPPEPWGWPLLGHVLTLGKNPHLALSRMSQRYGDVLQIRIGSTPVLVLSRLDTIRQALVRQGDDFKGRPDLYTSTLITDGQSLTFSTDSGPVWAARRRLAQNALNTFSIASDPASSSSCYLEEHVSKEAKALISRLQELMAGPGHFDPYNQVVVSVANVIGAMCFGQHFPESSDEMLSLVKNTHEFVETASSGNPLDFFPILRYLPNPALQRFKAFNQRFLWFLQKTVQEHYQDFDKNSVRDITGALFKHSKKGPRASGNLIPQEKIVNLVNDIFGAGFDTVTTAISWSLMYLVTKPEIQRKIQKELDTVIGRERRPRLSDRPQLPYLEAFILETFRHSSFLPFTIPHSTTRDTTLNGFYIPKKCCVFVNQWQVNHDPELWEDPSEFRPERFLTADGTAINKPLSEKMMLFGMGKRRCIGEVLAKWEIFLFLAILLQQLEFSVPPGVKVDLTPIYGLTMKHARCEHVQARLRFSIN

[4] = tested on: Alpha-2A adrenergic receptor (Homo sapiens) + Histamine H1 receptor (Homo sapiens) + Mu-type opioid receptor (Homo sapiens); settings: Ricerca radioligand binding/enzyme panel plus CYP450; at 10 µM; stronger effect = higher value
Adenosine A2A = settings: Ricerca radioligand binding/enzyme panel plus CYP450, at 10 µM, stronger effect = higher value
[5] = target: Beta-2 adrenergic receptor (Homo sapiens) (UniProt P07550); settings: Ricerca radioligand binding/enzyme panel plus CYP450; Adrenergic beta2; at 10 µM; stronger effect = higher value
GABAA = settings: Central, at 10 µM, stronger effect = higher value
[6] = target: Cytochrome P450 3A4 (Homo sapiens) (UniProt P08684); settings: Ricerca radioligand binding/enzyme panel plus CYP450; CYP450, 3A4; at 10 µM; stronger effect = higher value
Cytochrome P450 3A4 (Homo sapiens), sequence (P08684 whole entry, looked up): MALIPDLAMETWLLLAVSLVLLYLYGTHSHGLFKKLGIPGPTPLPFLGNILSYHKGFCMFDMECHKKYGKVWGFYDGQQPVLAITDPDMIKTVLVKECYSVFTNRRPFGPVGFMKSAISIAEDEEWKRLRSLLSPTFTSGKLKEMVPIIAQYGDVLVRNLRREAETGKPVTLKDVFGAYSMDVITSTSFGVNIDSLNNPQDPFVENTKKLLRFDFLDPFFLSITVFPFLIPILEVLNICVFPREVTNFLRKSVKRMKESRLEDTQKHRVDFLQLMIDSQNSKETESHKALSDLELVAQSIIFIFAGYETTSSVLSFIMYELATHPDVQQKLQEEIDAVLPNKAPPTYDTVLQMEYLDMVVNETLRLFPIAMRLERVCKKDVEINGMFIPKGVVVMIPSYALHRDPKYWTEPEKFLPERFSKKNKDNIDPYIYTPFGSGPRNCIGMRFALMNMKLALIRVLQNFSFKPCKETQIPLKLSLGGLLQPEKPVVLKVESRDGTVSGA

Sigma 1 = settings: Ricerca radioligand binding/enzyme panel plus CYP450, at 10 µM, stronger effect = higher value
Prostanoid EP4 = settings: Ricerca radioligand binding/enzyme panel plus CYP450, at 10 µM, stronger effect = higher value
Glutamate NMDA = settings: Ricerca radioligand binding/enzyme panel plus CYP450, Phencyclidine, at 10 µM, stronger effect = higher value
Dopamine D2S = settings: Ricerca radioligand binding/enzyme panel plus CYP450, at 10 µM, stronger effect = higher value
[7] = target: D(1A) dopamine receptor (Homo sapiens) (UniProt P21728); settings: Ricerca radioligand binding/enzyme panel plus CYP450; Dopamine D1; at 10 µM; stronger effect = higher value
[8] = target: Cytochrome P450 2D6 (Homo sapiens) (UniProt P10635); settings: Ricerca radioligand binding/enzyme panel plus CYP450; CYP450, 2D6; at 10 µM; stronger effect = higher value
Cytochrome P450 2D6 (Homo sapiens), sequence (P10635 whole entry, looked up): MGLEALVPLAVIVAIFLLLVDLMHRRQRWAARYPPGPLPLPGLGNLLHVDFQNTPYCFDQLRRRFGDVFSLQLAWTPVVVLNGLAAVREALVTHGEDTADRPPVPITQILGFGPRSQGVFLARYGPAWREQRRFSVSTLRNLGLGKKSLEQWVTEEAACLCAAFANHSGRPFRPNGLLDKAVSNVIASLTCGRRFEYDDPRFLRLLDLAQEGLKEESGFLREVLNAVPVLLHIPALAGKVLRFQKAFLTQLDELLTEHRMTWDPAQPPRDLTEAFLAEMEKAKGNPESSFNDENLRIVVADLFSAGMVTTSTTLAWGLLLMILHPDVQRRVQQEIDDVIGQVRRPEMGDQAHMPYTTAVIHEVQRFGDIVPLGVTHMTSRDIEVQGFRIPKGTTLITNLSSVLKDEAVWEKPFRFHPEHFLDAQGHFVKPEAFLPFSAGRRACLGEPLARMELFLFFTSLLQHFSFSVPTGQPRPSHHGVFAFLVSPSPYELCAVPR

Histamine H1 = settings: Ricerca radioligand binding/enzyme panel plus CYP450, at 10 µM, stronger effect = higher value
Calcium Channel L-Type = settings: Ricerca radioligand binding/enzyme panel plus CYP450, Dihydropyridine, at 10 µM, stronger effect = higher value
Adrenergic alpha1A = settings: Ricerca radioligand binding/enzyme panel plus CYP450, at 10 µM, stronger effect = higher value
[9] = target: Alpha-2A adrenergic receptor (Homo sapiens) (UniProt P08913); settings: Ricerca radioligand binding/enzyme panel plus CYP450; Adrenergic alpha2A; at 10 µM; stronger effect = higher value
Alpha-2A adrenergic receptor (Homo sapiens), sequence (P08913 whole entry, looked up): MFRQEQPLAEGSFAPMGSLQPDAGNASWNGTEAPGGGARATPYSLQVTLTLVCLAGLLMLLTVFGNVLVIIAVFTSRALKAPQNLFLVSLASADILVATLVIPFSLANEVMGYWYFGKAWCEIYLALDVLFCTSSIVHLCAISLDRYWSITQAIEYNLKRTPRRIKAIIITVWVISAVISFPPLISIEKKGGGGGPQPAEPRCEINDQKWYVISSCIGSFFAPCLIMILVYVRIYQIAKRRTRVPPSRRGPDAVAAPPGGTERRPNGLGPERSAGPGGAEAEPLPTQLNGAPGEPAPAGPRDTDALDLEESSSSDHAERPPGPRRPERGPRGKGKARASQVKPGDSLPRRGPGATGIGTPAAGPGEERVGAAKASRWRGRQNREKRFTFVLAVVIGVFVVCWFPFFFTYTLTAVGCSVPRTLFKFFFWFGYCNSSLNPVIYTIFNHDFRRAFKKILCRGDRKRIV

Nicotinic Acetylcholine = settings: Ricerca radioligand binding/enzyme panel plus CYP450, at 10 µM, stronger effect = higher value
[10] = tested on: Transporter, Norepinephrine (NET); settings: Ricerca radioligand binding/enzyme panel plus CYP450, at 10 µM, stronger effect = higher value
[11] = target: Muscarinic acetylcholine receptor M3 (Homo sapiens) (UniProt P20309); settings: Ricerca radioligand binding/enzyme panel plus CYP450, at 10 µM, stronger effect = higher value
Muscarinic acetylcholine receptor M3 (Homo sapiens), sequence (P20309 whole entry, looked up): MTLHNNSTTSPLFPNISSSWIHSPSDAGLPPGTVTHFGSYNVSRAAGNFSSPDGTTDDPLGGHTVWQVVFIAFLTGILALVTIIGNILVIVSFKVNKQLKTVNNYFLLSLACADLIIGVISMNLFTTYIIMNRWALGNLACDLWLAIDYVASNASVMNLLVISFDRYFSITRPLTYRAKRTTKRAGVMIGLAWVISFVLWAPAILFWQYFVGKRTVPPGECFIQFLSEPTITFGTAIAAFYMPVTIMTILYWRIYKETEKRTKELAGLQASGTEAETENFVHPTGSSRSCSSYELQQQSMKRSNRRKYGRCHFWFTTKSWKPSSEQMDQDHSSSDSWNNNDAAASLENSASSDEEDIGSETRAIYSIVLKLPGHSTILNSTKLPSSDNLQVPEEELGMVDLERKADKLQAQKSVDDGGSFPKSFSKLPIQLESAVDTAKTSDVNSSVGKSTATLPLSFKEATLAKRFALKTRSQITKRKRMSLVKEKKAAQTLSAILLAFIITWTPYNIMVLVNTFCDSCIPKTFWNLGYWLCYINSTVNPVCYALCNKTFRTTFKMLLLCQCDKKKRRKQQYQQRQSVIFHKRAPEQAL

Opiate mu (OP3, MOP) = settings: Ricerca radioligand binding/enzyme panel plus CYP450, at 10 µM, stronger effect = higher value
[12] = target: Voltage-gated inwardly rectifying potassium channel KCNH2 (Homo sapiens) (UniProt Q12809); settings: Ricerca radioligand binding/enzyme panel plus CYP450; Potassium Channel hERG; at 10 µM; stronger effect = higher value
Voltage-gated inwardly rectifying potassium channel KCNH2 (Homo sapiens), sequence (Q12809 whole entry, looked up): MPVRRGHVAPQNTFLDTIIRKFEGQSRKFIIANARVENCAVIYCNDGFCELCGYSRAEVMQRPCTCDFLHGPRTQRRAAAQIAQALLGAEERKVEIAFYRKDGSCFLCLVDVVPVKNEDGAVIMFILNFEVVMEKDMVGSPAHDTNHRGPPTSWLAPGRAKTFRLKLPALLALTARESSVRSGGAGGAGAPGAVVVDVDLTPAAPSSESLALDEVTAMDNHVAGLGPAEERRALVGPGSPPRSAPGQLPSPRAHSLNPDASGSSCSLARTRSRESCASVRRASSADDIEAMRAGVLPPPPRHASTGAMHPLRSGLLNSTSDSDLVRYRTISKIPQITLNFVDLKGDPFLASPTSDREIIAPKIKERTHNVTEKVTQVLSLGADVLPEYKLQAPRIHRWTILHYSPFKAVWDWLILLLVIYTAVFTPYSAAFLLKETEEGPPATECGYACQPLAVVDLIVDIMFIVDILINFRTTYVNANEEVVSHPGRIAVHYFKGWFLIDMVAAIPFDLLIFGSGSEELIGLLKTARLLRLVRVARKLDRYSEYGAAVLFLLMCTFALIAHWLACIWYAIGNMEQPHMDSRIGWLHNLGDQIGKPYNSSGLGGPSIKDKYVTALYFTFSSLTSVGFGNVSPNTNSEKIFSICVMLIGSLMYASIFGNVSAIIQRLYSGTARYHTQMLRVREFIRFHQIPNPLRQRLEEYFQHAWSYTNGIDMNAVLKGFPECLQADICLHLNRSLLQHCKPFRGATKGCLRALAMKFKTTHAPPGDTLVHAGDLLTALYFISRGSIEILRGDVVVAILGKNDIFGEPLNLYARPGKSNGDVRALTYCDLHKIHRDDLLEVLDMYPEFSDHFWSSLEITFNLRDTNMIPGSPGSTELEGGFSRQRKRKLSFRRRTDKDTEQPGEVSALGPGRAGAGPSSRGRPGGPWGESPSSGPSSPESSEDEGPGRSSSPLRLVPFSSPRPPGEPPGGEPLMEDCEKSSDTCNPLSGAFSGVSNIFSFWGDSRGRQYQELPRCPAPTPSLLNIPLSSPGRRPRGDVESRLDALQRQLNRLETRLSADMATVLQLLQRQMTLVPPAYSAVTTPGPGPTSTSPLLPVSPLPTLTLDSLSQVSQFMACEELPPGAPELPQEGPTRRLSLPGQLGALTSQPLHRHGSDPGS

Cannabinoid CB1 = settings: Ricerca radioligand binding/enzyme panel plus CYP450, at 10 µM, stronger effect = higher value
[13] = target: 5-hydroxytryptamine receptor 2B (Homo sapiens) (UniProt P41595); settings: Ricerca radioligand binding/enzyme panel plus CYP450; Serotonin (5-Hydroxytryptamine) 5-HT2B; at 10 µM; stronger effect = higher value
Sodium Channel, Site 2 = settings: Ricerca radioligand binding/enzyme panel plus CYP450, at 10 µM, stronger effect = higher value
Adrenergic beta1 = settings: Ricerca radioligand binding/enzyme panel plus CYP450, at 10 µM, stronger effect = higher value
Adrenergic alpha1B = settings: Ricerca radioligand binding/enzyme panel plus CYP450, at 10 µM, stronger effect = higher value

Clc1ccc(OCCOc2ccc(Br)nc2Br)c(Cl)c1
inhibition (CYP450, 2C19): 97% | inhibition (Adenosine A1): 7% (inactive) | inhibition [1]: 2% (inactive) | inhibition [2]: 3% (inactive) | inhibition [3]: 58% | inhibition [4]: 0% (inactive) | inhibition (Adenosine A2A): 10% (inactive) | inhibition [5]: 7% (inactive) | inhibition (GABAA; Ricerca radioligand binding/enzyme panel plus CYP450, Flunitrazepam): 2% (inactive) | inhibition (GABAA; Ricerca radioligand binding/enzyme panel plus CYP450, Muscimol): 1% (inactive) | inhibition [6]: -5% (inactive) | inhibition (Sigma 1): 22% (inactive) | inhibition (Prostanoid EP4): -7% (inactive) | inhibition (Glutamate NMDA): -5% (inactive) | inhibition (Dopamine D2S): 25% (inactive) | inhibition [7]: 18% (inactive) | inhibition [8]: 2% (inactive) | inhibition (Histamine H1): 15% (inactive) | inhibition (Calcium Channel L-Type): 51% | inhibition (Adrenergic alpha1A): 28% (inactive) | inhibition [9]: 9% (inactive) | inhibition (Nicotinic Acetylcholine): -4% (inactive) | inhibition [10]: 68% | inhibition [11]: -3% (inactive) | inhibition (Opiate mu (OP3, MOP)): 9% (inactive) | inhibition [12]: -1% (inactive) | inhibition (Cannabinoid CB1): 31% (inactive) | inhibition [13]: 27% (inactive) | inhibition (Sodium Channel, Site 2): 32% (inactive) | inhibition (Adrenergic beta1): 12% (inactive) | inhibition (Adrenergic alpha1B): 26% (inactive)
